Reference: ChEMBL document CHEMBL5463729, “Data for DCP probe BAY 1753011” (2023)

Legend:
[1] = biological target: Tyrosine-protein kinase Fes/Fps (Homo sapiens) (UniProt P07332); assay: Inhibition of Fes(h) at 10.0 µM in the Eurofins Kinase panel; conditions: Compound concentration 10.0 uM
[2] = biological target: Cannabinoid receptor 2 (Homo sapiens) (UniProt P34972); conditions: Compound concentration 10.0 uM
[3] = biological target: Melatonin receptor type 1A (Homo sapiens) (UniProt P48039); assay: Inhibition of Melatonin MT1 at 10 µM in the Eurofins-Panlabs radioligand binding assay (Eurofins_assay_251600); set-up: ligand concentration 0.05 nM; conditions: Compound concentration 10.0 uM
Chain of Melatonin receptor type 1A (Homo sapiens) (P48039 whole entry): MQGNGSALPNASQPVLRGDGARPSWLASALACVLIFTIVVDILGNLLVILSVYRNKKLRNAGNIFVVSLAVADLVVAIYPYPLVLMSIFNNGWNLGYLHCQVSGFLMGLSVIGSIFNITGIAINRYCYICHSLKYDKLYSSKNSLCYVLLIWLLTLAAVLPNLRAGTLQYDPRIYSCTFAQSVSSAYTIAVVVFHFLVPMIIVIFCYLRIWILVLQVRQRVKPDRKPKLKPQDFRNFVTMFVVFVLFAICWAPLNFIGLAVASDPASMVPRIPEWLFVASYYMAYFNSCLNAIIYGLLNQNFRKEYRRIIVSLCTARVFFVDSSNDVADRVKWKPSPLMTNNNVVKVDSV

[4] = biological target: Cannabinoid receptor 1 (Homo sapiens) (UniProt P21554); conditions: Compound concentration 10.0 uM
[5] = biological target: Cathepsin G (Homo sapiens) (UniProt P08311); assay: Inhibition of Peptidase, CTSG (Cathepsin G) at 10 µM in the Eurofins-Panlabs enzyme assay (Eurofins_assay_112510); set-up: substrate with concentration; conditions: Compound concentration 10.0 uM
Chain of Cathepsin G (Homo sapiens) (P08311 whole entry): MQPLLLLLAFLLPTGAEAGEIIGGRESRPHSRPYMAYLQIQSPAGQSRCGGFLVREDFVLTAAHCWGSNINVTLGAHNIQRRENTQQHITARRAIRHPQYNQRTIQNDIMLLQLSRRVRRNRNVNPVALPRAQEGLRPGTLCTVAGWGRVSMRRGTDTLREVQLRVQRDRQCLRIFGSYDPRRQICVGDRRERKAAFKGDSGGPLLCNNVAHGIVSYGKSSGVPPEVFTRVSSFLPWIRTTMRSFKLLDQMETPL

[6] = biological target: Thromboxane-A synthase (Homo sapiens) (UniProt P24557); assay: Inhibition of Thromboxane Synthase at compound concentration of 10.0 uM in the Eurofins-Panlabs enzyme assay (Eurofins_assay_194020); set-up: substrate with concentration; conditions: Compound concentration 10.0 uM
Chain of Thromboxane-A synthase (Homo sapiens) (P24557 whole entry): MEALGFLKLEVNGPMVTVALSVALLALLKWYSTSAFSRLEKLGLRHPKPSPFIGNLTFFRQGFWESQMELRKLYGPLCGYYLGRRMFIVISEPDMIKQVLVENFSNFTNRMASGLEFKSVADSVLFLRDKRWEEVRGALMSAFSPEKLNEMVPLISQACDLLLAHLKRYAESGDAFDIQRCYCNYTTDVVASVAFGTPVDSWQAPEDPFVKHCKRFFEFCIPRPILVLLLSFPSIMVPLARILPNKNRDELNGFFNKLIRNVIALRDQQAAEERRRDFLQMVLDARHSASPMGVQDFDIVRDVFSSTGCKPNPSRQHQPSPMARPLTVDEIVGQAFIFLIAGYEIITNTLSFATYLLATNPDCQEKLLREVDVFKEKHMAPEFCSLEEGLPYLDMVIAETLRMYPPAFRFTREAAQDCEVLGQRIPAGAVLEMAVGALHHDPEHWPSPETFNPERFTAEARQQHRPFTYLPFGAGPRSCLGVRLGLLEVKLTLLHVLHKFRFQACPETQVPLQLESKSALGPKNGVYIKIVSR

[7] = biological target: Substance-K receptor (Homo sapiens) (UniProt P21452); assay: Inhibition of Tachykinin NK2 at 10 µM in the Eurofins-Panlabs radioligand binding assay (Eurofins_assay_255600); set-up: ligand concentration 0.5 nM; conditions: Compound concentration 10.0 uM
Chain of Substance-K receptor (Homo sapiens) (P21452 whole entry): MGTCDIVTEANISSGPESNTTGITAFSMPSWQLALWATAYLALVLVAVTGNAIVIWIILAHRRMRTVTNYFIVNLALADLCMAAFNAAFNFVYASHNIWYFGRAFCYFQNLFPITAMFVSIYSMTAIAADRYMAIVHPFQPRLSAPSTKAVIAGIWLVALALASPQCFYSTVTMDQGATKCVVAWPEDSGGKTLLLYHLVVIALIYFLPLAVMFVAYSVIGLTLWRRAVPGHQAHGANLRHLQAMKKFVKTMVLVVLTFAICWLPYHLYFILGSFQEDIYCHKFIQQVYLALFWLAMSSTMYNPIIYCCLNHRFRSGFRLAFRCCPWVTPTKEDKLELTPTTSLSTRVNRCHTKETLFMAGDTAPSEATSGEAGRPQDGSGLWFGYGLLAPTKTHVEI

Homo sapiens = species: Homo sapiens; assay: Inhibition of Phosphodiesterase PDE4 at compound concentration of 10.0 uM in the Eurofins-Panlabs enzyme assay (Eurofins_assay_154000); type: protein assay; set-up: substrate with concentration 1.01 uM [3 H]cAMP + cAMP, incubation time 20 min, incubation temperature 25 C; conditions: Compound concentration 10.0 uM
Rattus norvegicus = species: Rattus norvegicus; assay: Inhibition of Thyroid Hormone at 10 µM in the Eurofins-Panlabs radioligand binding assay (Eurofins_assay_285900); type: protein assay; conditions: Compound concentration 10.0 uM
[8] = biological target: Voltage-dependent N-type calcium channel subunit alpha-1B (Homo sapiens) (UniProt Q00975); assay: Inhibition of Calcium Channel N-Type at 10 µM in the Eurofins-Panlabs radioligand binding assay (Eurofins_assay_216000); conditions: Rattus norvegicus; Compound concentration 10.0 uM
Chain of Voltage-dependent N-type calcium channel subunit alpha-1B (Homo sapiens) (Q00975 whole entry, looked up): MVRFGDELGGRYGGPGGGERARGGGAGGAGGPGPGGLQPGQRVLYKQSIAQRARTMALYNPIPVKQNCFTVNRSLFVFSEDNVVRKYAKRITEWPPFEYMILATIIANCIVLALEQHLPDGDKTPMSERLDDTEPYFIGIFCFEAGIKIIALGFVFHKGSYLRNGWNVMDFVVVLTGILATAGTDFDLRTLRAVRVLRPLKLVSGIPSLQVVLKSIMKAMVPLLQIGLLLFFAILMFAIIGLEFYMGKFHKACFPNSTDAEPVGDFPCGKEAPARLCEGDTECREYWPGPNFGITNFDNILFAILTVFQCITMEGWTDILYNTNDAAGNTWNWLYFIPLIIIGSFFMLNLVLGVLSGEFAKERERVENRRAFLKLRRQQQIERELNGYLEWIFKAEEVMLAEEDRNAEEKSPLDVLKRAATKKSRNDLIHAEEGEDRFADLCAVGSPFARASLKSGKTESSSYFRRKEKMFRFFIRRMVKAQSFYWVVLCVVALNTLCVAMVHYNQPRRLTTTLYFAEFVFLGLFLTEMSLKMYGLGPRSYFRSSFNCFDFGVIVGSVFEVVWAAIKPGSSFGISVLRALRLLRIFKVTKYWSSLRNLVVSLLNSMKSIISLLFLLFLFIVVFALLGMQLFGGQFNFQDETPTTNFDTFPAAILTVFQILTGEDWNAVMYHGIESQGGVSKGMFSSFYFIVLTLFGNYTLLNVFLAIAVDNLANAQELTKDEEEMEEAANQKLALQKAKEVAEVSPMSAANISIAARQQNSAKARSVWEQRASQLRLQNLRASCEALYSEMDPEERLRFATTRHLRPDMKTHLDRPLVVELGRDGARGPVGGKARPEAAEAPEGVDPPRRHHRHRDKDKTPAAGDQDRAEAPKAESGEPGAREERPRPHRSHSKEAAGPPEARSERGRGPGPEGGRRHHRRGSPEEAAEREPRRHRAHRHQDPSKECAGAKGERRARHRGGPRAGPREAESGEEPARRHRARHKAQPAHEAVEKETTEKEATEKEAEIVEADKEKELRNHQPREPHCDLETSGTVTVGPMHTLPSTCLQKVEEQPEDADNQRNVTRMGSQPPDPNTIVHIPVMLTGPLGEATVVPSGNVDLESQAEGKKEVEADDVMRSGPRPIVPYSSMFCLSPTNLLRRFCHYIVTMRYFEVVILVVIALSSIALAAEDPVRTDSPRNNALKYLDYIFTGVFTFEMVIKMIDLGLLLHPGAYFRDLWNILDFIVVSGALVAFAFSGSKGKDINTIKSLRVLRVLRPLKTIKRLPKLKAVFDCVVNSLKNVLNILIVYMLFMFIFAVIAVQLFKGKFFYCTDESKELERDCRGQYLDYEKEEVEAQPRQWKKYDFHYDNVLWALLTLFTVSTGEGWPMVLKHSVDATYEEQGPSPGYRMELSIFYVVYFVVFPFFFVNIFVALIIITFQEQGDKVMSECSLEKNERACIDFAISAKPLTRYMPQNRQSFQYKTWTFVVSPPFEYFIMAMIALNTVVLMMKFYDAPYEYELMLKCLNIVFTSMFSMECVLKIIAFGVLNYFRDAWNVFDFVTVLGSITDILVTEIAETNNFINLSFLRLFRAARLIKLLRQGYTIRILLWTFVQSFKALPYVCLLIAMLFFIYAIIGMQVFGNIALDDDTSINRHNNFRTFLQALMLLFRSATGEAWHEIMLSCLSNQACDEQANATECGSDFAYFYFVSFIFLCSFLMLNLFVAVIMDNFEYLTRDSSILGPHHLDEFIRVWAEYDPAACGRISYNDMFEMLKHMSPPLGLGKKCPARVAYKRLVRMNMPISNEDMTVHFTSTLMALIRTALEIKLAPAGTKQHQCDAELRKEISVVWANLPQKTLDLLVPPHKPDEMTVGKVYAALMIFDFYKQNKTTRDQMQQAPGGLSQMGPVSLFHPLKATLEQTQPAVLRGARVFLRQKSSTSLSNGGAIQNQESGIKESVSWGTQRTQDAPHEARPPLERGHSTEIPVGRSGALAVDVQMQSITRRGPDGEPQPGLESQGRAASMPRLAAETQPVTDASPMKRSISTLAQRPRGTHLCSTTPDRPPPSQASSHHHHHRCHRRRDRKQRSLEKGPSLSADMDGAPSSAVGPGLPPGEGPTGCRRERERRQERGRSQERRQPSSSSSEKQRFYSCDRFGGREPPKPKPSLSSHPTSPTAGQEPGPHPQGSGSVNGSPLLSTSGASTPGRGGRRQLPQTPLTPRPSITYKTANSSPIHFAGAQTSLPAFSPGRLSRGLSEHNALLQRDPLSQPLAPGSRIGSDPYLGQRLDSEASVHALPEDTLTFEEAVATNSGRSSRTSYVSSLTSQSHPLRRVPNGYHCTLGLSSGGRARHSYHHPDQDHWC

[9] = biological target: T1, Alpha-1D adrenergic receptor (Homo sapiens) (UniProt P25100); assay: Inhibition of Adrenergic alpha1D at 10 µM in the Eurofins-Panlabs radioligand binding assay (Eurofins_assay_203400); conditions: Compound concentration 10.0 uM
T1 sequence (whole entry): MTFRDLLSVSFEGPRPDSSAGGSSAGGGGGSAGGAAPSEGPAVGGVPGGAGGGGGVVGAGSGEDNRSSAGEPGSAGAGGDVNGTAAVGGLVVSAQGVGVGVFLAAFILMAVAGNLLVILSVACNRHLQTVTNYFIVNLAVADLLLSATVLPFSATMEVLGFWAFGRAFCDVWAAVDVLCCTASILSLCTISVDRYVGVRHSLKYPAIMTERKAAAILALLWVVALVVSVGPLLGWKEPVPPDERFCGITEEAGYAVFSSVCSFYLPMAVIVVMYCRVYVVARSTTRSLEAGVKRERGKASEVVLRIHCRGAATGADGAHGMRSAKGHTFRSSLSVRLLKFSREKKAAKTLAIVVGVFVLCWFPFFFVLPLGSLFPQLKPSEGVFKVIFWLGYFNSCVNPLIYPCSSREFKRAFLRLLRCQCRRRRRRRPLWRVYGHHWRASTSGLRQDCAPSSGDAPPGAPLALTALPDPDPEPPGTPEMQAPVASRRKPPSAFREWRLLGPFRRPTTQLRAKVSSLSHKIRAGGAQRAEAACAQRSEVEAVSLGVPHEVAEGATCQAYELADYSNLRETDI

Chain of Tyrosine-protein kinase Fes/Fps (Homo sapiens) (P07332 whole entry): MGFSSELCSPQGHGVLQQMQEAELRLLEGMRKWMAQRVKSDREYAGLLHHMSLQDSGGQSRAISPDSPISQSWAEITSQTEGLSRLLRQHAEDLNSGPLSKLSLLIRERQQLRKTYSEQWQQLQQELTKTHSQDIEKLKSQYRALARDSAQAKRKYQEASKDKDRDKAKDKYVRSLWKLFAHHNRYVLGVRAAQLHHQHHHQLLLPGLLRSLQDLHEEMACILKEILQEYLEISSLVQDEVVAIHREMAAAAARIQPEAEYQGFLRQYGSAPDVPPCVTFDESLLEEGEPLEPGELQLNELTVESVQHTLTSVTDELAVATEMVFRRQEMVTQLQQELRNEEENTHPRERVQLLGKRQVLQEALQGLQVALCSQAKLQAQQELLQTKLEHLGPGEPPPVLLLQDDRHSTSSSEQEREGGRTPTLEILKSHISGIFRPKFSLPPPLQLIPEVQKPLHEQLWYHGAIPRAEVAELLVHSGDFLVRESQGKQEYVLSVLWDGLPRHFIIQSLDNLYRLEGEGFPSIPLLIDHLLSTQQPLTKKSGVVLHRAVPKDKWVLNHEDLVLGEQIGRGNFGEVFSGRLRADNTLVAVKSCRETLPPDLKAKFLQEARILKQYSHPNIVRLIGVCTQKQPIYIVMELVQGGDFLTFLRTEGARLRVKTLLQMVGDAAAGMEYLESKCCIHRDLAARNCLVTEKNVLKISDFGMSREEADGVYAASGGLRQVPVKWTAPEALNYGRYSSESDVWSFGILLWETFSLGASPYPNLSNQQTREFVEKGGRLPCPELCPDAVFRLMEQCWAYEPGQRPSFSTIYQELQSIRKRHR
Chain of Cannabinoid receptor 2 (Homo sapiens) (P34972 whole entry): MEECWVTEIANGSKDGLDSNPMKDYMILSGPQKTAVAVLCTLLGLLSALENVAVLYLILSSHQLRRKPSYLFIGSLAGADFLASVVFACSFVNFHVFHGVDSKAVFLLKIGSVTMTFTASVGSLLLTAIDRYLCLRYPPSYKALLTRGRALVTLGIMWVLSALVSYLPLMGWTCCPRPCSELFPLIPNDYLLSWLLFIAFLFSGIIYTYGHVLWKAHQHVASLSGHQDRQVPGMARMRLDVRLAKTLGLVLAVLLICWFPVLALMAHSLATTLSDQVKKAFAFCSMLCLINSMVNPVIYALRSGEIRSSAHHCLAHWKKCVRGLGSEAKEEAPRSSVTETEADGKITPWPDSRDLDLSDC

O=c1n(Cc2cncn2-c2cccc(Cl)c2)nc(-c2ccc(Cl)cc2)n1C[C@H](O)C(F)(F)F
inhibition [1]: -7.81% | inhibition [2]: 14%

C[C@H](O)c1nc(Cn2nc(-c3ccc(Cl)cc3)n(C[C@H](O)C(F)(F)F)c2=O)nn1-c1cccc(Cl)c1 [PECAVAPTAN]
inhibition [3]: -6% | inhibition [4]: 34% | inhibition [5]: 0% | inhibition [6]: -6% | inhibition [7]: 30% | inhibition (Homo sapiens): -4% | inhibition (Rattus norvegicus): 6% | inhibition [8]: -2% | inhibition [9]: 1%
